Data: patent US20260014203A1, “USE OF COMPOSITION INCLUDING MESENCHYMAL STEM CELLS FOR ALLEVIATING MYELOFIBROSIS” (MEDICAL AND PHARMACEUTICAL INDUSTRY TECHNOLOGY AND …, priority 2022, published 2026)

Key:
IDO gene in UCMSCs = assay: Priming of UCMSCs with IFN-γ in combination with a supplement, IDO gene mRNA by real-time PCR; type: cell-based, human; settings: 250 U/mL of IFN-γ in combination with the supplement, 72 hours; compared with comparative group (IFN-γ only)
Experimental: In order to determine whether addition of a supplement, which is selected from one of vitamin, steroid, cytokine, double-stranded RNA, and histone deacetylase (HDAC) inhibitor, enhanced the effect of IFN-γ in the priming of UCMSCs, the following experiments were conducted.
In brief, UCMSCs culture as described in Item 2 of the General Experimental Materials were divided into 8 groups, namely, a normal control group (NCG), a comparative group (CG) and 6 experimental groups, i.e., experimental group 1 to experimental group 6 (EG1 to EG6), with the number of UCMSCs in each group being 5.8×10^5 cells. Next, the UCMSCs in each group were subjected to priming, in which the UCMSCs in the CG were treated with 250 U/mL of IFN-γ for 72 hours, the UCMSCs in a respective one of the EG1 to EG6 were treated with 250 U/mL of IFN-γ in combination with 1 μM of retinoic acid, 1 μg/mL of dexamethasone, 10 ng/mL of TNF-α, 25 μg/mL of polyinosinic acid-polycytidylic acid, 0.5 mM of valproic acid, and 1 μM of budesonide, respectively, for 72 hours, while the UCMSCs in the NCG were not subjected to any treatment and were left to stand for 72 hours.

[1] = test system: indoleamine-pyrrole 2,3-dioxygenase (IDO)-expressing UCMSCs; assay: Priming of UCMSCs with IFN-γ, percentage of IDO-expressing UCMSCs by flow cytometry; type: cell-based, human
Experimental: UCMSCs culture as described in Item 2 of the General Experimental Materials were divided into 6 groups, namely, a control group (CG), and 5 experimental groups, i.e., experimental group 1 to 5 (EG1 to EG5), with the number of UCMSCs in each group being 5.8×10^5 cells. Next, the UCMSCs in the EG1 to EG5 were subjected to priming by treating with different concentrations of IFN-γ, i.e., 50, 100, 200, 250 and 500 U/mL of IFN-γ, respectively, for 72 hours, while the UCMSCs in the CG were not subjected to any treatment. For identification of IDO-expressing UCMSCs, the cells in each group were stained with phycoerythrin-conjugated IDO monoclonal antibody (Manufacturer: Thermo Fisher Scientific; Catalogue no.: 12-9477-42) while phycoerythrin-conjugated mouse IgG1 kappa isotype control (Manufacturer: Thermo Fisher Scientific; Catalogue no.: 12-4714-82) served as the control antibody, followed by subjecting the stained cells to flow cytometry conducted using CytoFLEX Flow Cytometer (Beckman Coulter), so as to determine the percentage of IDO-expressing UCMSCs in each group.
In brief, the UCMSCs culture as described in Item 2 of the General Experimental Materials were divided into 9 groups, namely, three control groups, i.e., control groups 1 to 3 (CG1 to CG3), and 6 experimental groups, i.e., experimental group 1-1 (EG1-1), experimental group 1-2 (EG1-2), experimental group 2-1 (EG2-1), experimental group 2-2 (EG2-2), experimental group 3-1 (EG3-1) and experimental group 3-2 (EG3-2), with the number of UCMSCs in each group being 5.8×10^5 cells. Next, the UCMSCs in the EG1-1, EG2-1, and EG3-1 were subjected to priming by treating with 250 U/mL of IFN-γ for 24 hours, 48 hours, and 72 hours, respectively, the UCMSCs in EG1-2, EG2-2, and EG3-2 were treated with 500 U/mL of IFN-γ for 24 hours, 48 hours, and 72 hours, respectively, while the UCMSCs in the CG1, CG2 and CG3 were not subjected to any treatment and were left to stand for 24 hours, 48 hours, and 72 hours, respectively. […]

For polyinosinic acid-polycytidylic acid, the “relative mRNA expression level of IDO gene” value (IDO gene in UCMSCs) was “higher”.
For CCCC(CCC)C(=O)O [valproic acid], the “relative mRNA expression level of IDO gene” value (IDO gene in UCMSCs) was “higher”.
With TNF-α the “relative mRNA expression level of IDO gene” value (IDO gene in UCMSCs) was “higher”.
In the case of “IFN-γ: cytokine used for priming of UCMSCs”, the “percentage of IDO-expressing UCMSCs” value ([1]; 50, 100, 200, 250 and 500 U/mL of IFN-γ, 72 hours, compared with control group, concentration dependent) is reported as “higher”, the “percentage of IDO-expressing UCMSCs” value ([1]; 250 or 500 U/mL of IFN-γ for 24, 48 or 72 hours, compared with the untreated control group of the same time) is reported as “higher” and the “percentage of IDO-expressing UCMSCs” value ([1]; 250 or 500 U/mL of IFN-γ, 72 hours compared with 48 hours and 24 hours) is reported as “higher”.
